We go through 15 molecules from patent US20260274832A1, “COMPOUNDS AND THEIR USE IN TREATING CANCER” (ASTRAZENECA AB, priority 2023, published 2026).

Assay [1] concerns the target T1, AR (L702H) in LNCaP cells (Homo sapiens, UniProt P10275, L702H/T878A).
T1 construct: engineered to introduce the mutation L702H into the AR gene using CRISPR/Cas9; endogenous in cells; host or cells: LNCaP cells edited by CRISPR/Cas9 at the AR gene
The assay can be described thus: LNCaP Androgen Receptor L702H Imaging Assay (LNCaP cells engineered by CRISPR/Cas9). The conditions noted are these: LNCaP cells with AR L702H mutation, 24 h incubation; for DC50: concentration giving 50% of maximum degradation of AR (L702H) per curve fit; for Dmax: LNCaP, maximum degradation observed, normalized as % of positive control. It counts as cell-based. Put shortly: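 AR (L702H) degradation, expressed as DC50 and Dmax from curve fits normalized to a positive degrader control, was measured by high-content imaging of anti-AR immunofluorescence. The engineered LNCaP line was dosed over 12 concentrations for 24 h, 0.3% DMSO final, before PFA fixation.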

Assay [2] has as its target T2, AR (AR-full length) in LNCaP cells (Homo sapiens, UniProt P10275, T878A).
T2 construct: the prostate cancer cell line LNCaP (expressing AR-full length); endogenous in cells; host or cells: LNCaP
The assay is described as follows: LNCaP Androgen Receptor Imaging Assay (immunofluorescence of endogenous nuclear AR). It counts as cell-based. The note with it: 24 h incubation; for DC50: concentration giving 50% of maximum degradation of AR per curve fit, single experiment or average of two or more; for Dmax: LNCaP, maximum degradation observed, normalized as % of positive control (prior art AR PROTAC at 3 μM). The procedure, abridged: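 Endogenous nuclear AR level was imaged by immunofluorescence after 24 h compound exposure (12-point dose response, 0.3% DMSO, 37° C./5% CO2) in LNCaP cells. Data were expressed as % of a 3 μM prior-art AR PROTAC control and fitted (bell fit where a hook appeared) to give DC50 and maximum degradation Dmax.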

T1 sequence (P10275 whole entry L702H/T878A): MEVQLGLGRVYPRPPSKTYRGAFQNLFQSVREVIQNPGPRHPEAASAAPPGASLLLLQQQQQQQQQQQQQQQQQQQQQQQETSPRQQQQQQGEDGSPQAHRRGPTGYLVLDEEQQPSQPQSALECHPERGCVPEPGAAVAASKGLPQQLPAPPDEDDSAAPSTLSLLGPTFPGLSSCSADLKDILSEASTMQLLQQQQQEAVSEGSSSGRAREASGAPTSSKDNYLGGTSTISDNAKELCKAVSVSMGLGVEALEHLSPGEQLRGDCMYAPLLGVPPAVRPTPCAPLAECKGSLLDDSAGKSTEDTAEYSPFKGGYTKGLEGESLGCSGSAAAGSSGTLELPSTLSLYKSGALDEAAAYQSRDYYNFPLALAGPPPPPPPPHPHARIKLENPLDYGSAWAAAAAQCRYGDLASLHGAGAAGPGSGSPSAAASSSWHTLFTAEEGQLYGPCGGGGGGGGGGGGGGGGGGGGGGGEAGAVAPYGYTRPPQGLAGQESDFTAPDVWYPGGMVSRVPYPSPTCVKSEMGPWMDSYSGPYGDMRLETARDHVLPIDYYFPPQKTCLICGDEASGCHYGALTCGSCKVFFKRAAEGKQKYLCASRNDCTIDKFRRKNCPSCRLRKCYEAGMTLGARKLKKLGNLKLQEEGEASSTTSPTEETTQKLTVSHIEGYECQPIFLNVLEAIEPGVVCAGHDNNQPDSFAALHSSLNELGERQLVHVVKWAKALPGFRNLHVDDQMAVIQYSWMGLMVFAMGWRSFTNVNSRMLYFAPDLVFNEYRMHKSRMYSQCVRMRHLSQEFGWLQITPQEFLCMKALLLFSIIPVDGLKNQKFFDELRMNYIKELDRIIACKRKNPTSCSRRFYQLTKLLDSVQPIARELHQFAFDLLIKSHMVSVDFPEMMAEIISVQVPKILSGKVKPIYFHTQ
T1 sequence (Q96SW2 whole entry partner): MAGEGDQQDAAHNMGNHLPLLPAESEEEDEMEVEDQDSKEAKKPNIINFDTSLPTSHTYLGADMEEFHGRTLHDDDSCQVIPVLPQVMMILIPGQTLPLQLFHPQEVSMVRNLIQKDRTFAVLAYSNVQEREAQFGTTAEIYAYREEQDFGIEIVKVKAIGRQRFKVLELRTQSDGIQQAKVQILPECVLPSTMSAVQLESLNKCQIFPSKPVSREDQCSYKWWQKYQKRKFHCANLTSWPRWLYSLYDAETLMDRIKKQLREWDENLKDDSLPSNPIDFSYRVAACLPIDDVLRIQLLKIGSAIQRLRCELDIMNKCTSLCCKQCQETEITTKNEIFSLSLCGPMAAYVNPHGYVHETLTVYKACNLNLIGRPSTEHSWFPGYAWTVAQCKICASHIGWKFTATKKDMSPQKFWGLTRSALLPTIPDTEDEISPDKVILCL
T2 sequence (P10275 whole entry T878A): as the sequence (P10275 whole entry L702H/T878A) above, with H702L counted along it
T2 sequence (Q96SW2 whole entry partner): as the sequence (Q96SW2 whole entry partner) above

For `N#Cc1c[nH]c2c(N3CCC(c4ccc(N5CCC(N6CCN(c7ccc8c(c7)CN(C7CCC(=O)NC7=O)C8=O)CC6)CC5)cc4)CC3)ccc(Cl)c12` (centres unmarked) [Example 110, 4-Chloro-7-{4-[4-(4-{4-[2-(2,6-dioxopiperidin-3-yl)-1-oxo-2,3-dihydro-1H-isoindol-5-yl]piperazin-1-yl}piperidin-1-yl)phenyl]piperidin-1-yl}-1H-indole-3-carbonitrile], in assay [1], the DC50 amounted to 5 nM and the Dmax was 97%. In assay [2], the DC50 was 6 nM and the Dmax stood at 88%.
The matching figures for `N#Cc1c[nH]c2c(N3CCC(c4ccc(N5CCC(N6CCC(n7ccc8c(N9CCC(=O)NC9=O)cccc87)CC6)CC5)cc4)CC3)ccc(Cl)c12` [Example 111, 4-Chloro-7-[4-(4-{4-[4-(2,4-dioxo-1,3-diazinan-1-yl)-1H-indol-1-yl][1,4′-bipiperidin]-1′-yl}phenyl)piperidin-1-yl]-1H-indole-3-carbonitrile]: 5 nM, 106%, 4 nM and 99%.
For the molecule `COc1cc(N2CCN(CC3CCN(c4ccc(C5CCN(c6ccc(Cl)c7c(C#N)cn(C)c67)CC5)cc4)CC3)CC2)cc2c1C(=O)N(C1CCC(=O)NC1=O)C2` (centres unmarked) [Example 112, 4-chloro-7-(4-{4-[4-({4-[2-(2,6-dioxopiperidin-3-yl)-7-methoxy-1-oxo-2,3-dihydro-1H-isoindol-5-yl]piperazin-1-yl}methyl)piperidin-1-yl]phenyl}piperidin-1-yl)-1-methyl-1H-indole-3-carbonitrile], the DC50 in assay [1] was 17 nM; in assay [2], above 3000 nM. Besides, the Dmax in assay [1] amounted to 87%.
With `N#Cc1c[nH]c2c(N3CCC(c4cccc(N5CCC(CN6CCN(c7ccc8c(c7)CN(C7CCC(=O)NC7=O)C8=O)CC6)CC5)c4)CC3)ccc(Cl)c12` (centres unmarked) [Example 113, 4-Chloro-7-(4-{3-[4-({4-[2-(2,6-dioxopiperidin-3-yl)-1-oxo-2,3-dihydro-1H-isoindol-5-yl]piperazin-1-yl}methyl)piperidin-1-yl]phenyl}piperidin-1-yl)-1H-indole-3-carbonitrile], in assay [1], it took 36 nM to reach half-maximal degradation (DC50) and the Dmax was found to be 76%. In addition, in assay [2], the 50% degradation concentration (DC50) is 19 nM and the Dmax is 92%.
For `Cc1cc2c(N3CCC(=O)NC3=O)cccc2n1C1CCN(CC2CCN(c3ccc([C@@H]4CCCN(c5ccc(Cl)c6c(C#N)c[nH]c56)C4)cc3)CC2)CC1` [Example 114, 4-Chloro-7-[(3S)-3-{4-[4-({4-[4-(2,4-dioxo-1,3-diazinan-1-yl)-2-methyl-1H-indol-1-yl]piperidin-1-yl}methyl)piperidin-1-yl]phenyl}piperidin-1-yl]-1H-indole-3-carbonitrile], in assay [1], half-maximal degradation (DC50) was put at 31 nM and the Dmax amounted to 101%. Further, in assay [2], half-maximal degradation (DC50) was put at 19 nM and the Dmax was 101%.
For `Cc1cc2c(N3CCC(=O)NC3=O)cccc2n1C1CCN(CC2CCN(c3ccc(C4CCN(c5ccc(Cl)c6c(C#N)c[nH]c56)CC4)cc3)CC2)CC1` [Example 123, 4-Chloro-7-(4-{4-[4-({4-[4-(2,4-dioxo-1,3-diazinan-1-yl)-2-methyl-1H-indol-1-yl]piperidin-1-yl}methyl)piperidin-1-yl]phenyl}piperidin-1-yl)-1H-indole-3-carbonitrile], in assay [1], the DC50 came to 18 nM and the Dmax stood at 104%. In addition, in assay [2], the half-maximal degradation concentration (DC50) amounted to 14 nM and the Dmax was found to be 95%.
The matching figures for `N#Cc1c[nH]c2c(N3CCC(c4cnc(N5CCC(CN6CCN(c7ccc8c(c7)CN(C7CCC(=O)NC7=O)C8=O)CC6)CC5)nc4)CC3)ccc(Cl)c12` (centres unmarked) [Example 124, 4-Chloro-7-(4-{2-[4-({4-[2-(2,6-dioxopiperidin-3-yl)-1-oxo-2,3-dihydro-1H-isoindol-5-yl]piperazin-1-yl}methyl)piperidin-1-yl]pyrimidin-5-yl}piperidin-1-yl)-1H-indole-3-carbonitrile]: 9 nM, 93%, 3 nM and 95%.
`N#Cc1c[nH]c2c(N3CCC(c4cnc(N5CCC(CN6CCC(n7ccc8c(N9CCC(=O)NC9=O)cccc87)CC6)CC5)nc4)CC3)ccc(Cl)c12` [Example 125, 4-Chloro-7-(4-{2-[4-({4-[4-(2,4-dioxo-1,3-diazinan-1-yl)-1H-indol-1-yl]piperidin-1-yl}methyl)piperidin-1-yl]pyrimidin-5-yl}piperidin-1-yl)-1H-indole-3-carbonitrile]: in assay [1], the DC50 came to 9 nM and the Dmax amounted to 93%. In assay [2], it took 4 nM to reach half-maximal degradation (DC50) and the Dmax was determined as 102%.
The matching figures for `N#Cc1c[nH]c2c(N3CCC(c4ccc(N5CCO[C@H](CN6CCN(c7ccc8c(c7)CN(C7CCC(=O)NC7=O)C8=O)CC6)C5)cc4)CC3)ccc(F)c12` (stereo partly drawn) [Example 126, 7-(4-{4-[(2R)-2-({4-[2-(2,6-dioxopiperidin-3-yl)-1-oxo-2,3-dihydro-1H-isoindol-5-yl]piperazin-1-yl}methyl)morpholin-4-yl]phenyl}piperidin-1-yl)-4-fluoro-1H-indole-3-carbonitrile]: 2 nM, 107%, 4 nM and 98%.
Regarding `N#Cc1c[nH]c2c(N3CCC(c4ccc(N5CCO[C@H](CN6CCN(c7ccc8c(c7)CN(C7CCC(=O)NC7=O)C8=O)CC6)C5)cc4)CC3)ccc(Cl)c12` (stereo partly drawn) [Example 127, 4-Chloro-7-(4-{4-[(2R)-2-({4-[2-(2,6-dioxopiperidin-3-yl)-1-oxo-2,3-dihydro-1H-isoindol-5-yl]piperazin-1-yl}methyl)morpholin-4-yl]phenyl}piperidin-1-yl)-1H-indole-3-carbonitrile], the DC50 in assay [1] and in assay [2] was 4 nM each time. Further, the Dmax in assay [1] stood at 110%; in assay [2], 100%.
With `N#Cc1c[nH]c2c(N3CCC(c4ccc(N5CC6(CCC(CN7CCN(c8ccc9c(c8)CN(C8CCC(=O)NC8=O)C9=O)CC7)CC6)C5)cc4)CC3)ccc(F)c12` (centres unmarked) [Example 128, 7-(4-{4-[7-({4-[2-(2,6-Dioxopiperidin-3-yl)-1-oxo-2,3-dihydro-1H-isoindol-5-yl]piperazin-1-yl}methyl)-2-azaspiro[3.5]nonan-2-yl]phenyl}piperidin-1-yl)-4-fluoro-1H-indole-3-carbonitrile], in assay [1], the DC50 was 61 nM and the Dmax is 103%. Moreover, in assay [2], the DC50 was 26 nM and the Dmax worked out at 102%.
In the case of `N#Cc1c[nH]c2c(N3CCC(c4ccc(N5CC6(CCC(CN7CCN(c8ccc9c(c8)CN(C8CCC(=O)NC8=O)C9=O)CC7)CC6)C5)cc4)CC3)ccc(Cl)c12` (centres unmarked) [Example 129, 4-Chloro-7-(4-{4-[7-({4-[2-(2,6-dioxopiperidin-3-yl)-1-oxo-2,3-dihydro-1H-isoindol-5-yl]piperazin-1-yl}methyl)-2-azaspiro[3.5]nonan-2-yl]phenyl}piperidin-1-yl)-1H-indole-3-carbonitrile], the half-maximal degradation concentration (DC50) in assay [1] amounted to 29 nM; in assay [2], 20 nM. Moreover, the Dmax in assay [1] came to 99%; in assay [2], 95%.
The like results for `N#Cc1c[nH]c2c(N3CCC[C@@H](c4ccc(N5CC6(CCC(CN7CCN(c8ccc9c(c8)CN(C8CCC(=O)NC8=O)C9=O)CC7)CC6)C5)cc4)C3)ccc(Cl)c12` (stereo partly drawn) [Example 130, 4-Chloro-7-[(3S)-3-{4-[7-({4-[2-(2,6-dioxopiperidin-3-yl)-1-oxo-2,3-dihydro-1H-isoindol-5-yl]piperazin-1-yl}methyl)-2-azaspiro[3.5]nonan-2-yl]phenyl}piperidin-1-yl]-1H-indole-3-carbonitrile] were, in that order, 42 nM, 31 nM, 78% and 99%.
The like results for `N#Cc1c[nH]c2c(N3CCC[C@@H](c4ccc(N5CC6(CCC(CN7CCC(n8ccc9c(N%10CCC(=O)NC%10=O)cccc98)CC7)CC6)C5)cc4)C3)ccc(Cl)c12` [Example 131, 4-Chloro-7-[(3S)-3-{4-[7-({4-[4-(2,4-dioxo-1,3-diazinan-1-yl)-1H-indol-1-yl]piperidin-1-yl}methyl)-2-azaspiro[3.5]nonan-2-yl]phenyl}piperidin-1-yl]-1H-indole-3-carbonitrile] were, in that order, 41 nM, 17 nM, 94% and 105%.
The like results for `Cn1c(C2CCN(CC3CCN(c4ccc([C@H]5CCCN(c6ccc(Cl)c7c(C#N)n[nH]c67)C5)cc4)CC3)CC2)cc2ccc(N3CCC(=O)NC3=O)cc21` [Example 132, 4-Chloro-7-[(3R)-3-{4-[4-({4-[6-(2,4-dioxo-1,3-diazinan-1-yl)-1-methyl-1H-indol-2-yl]piperidin-1-yl}methyl)piperidin-1-yl]phenyl}piperidin-1-yl]-1H-indazole-3-carbonitrile] were, in that order, 5 nM, 6 nM, 115% and 98%.
